We go through five compounds from patent publication US20260144780A1, “COMPOSITION FOR ENHANCING ADRENOMEDULLIN GENE EXPRESSION” (HOUSE WELLNESS FOODS CORPORATION, priority 2020, published 2026).

Series [1] relates to intestinal epithelial cells. The settings on record: Non Patent Literature 1, cited from earlier work.
Series [2] can be described thus: Solubility of isolated oxylipin compounds (physicochemical properties). The note with it: solvents listed for the isolated compound.
In a further series the target is T1, human TRPA1 (Homo sapiens, UniProt O75762).
T1 construct: expressed in transfected cells
T1 sequence (O75762 whole entry): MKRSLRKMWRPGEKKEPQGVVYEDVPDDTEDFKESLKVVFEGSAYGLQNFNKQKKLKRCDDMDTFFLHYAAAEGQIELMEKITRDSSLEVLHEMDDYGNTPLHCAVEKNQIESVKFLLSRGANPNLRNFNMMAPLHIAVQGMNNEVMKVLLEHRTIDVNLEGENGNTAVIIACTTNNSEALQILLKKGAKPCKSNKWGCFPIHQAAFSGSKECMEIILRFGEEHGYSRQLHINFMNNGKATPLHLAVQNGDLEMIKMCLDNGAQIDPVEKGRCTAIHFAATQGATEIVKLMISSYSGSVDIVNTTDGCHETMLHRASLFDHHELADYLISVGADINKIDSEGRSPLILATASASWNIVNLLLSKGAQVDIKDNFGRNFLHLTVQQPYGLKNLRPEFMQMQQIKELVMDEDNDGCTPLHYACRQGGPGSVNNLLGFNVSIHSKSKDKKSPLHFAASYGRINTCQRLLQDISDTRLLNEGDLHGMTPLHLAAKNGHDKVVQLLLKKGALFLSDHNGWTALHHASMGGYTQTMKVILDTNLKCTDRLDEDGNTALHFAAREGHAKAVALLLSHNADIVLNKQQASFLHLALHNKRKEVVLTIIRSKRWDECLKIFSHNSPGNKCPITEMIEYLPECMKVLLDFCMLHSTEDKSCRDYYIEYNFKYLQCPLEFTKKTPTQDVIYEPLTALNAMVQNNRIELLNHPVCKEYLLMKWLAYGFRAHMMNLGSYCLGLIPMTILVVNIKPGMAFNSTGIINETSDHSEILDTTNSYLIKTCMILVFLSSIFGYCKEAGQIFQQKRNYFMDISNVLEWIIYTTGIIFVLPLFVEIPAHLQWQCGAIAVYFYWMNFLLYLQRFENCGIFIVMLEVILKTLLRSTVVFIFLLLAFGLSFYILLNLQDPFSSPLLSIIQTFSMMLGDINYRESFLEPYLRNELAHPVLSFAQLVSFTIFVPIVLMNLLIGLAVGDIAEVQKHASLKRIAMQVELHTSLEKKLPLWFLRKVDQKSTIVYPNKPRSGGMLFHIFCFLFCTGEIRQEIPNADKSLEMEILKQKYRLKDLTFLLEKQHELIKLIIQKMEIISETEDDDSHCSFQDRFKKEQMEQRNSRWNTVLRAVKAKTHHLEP
In words: TRP channel agonist activity, intracellular Ca2+ imaging, hTRPA1 stably expressing cell line. Format: cell-based. The note with it: oxylipin compounds 200 μM and 500 μM, AITC 30 μM, Evaluation 5, FIG. 21. An excerpt:
DNA fragments containing nucleotide sequences encoding amino acid sequences of human TRPA1 (Accession No. NM_007332.3) (hereinafter referred to also as hTRPA1), human TRPV1 (Accession No. NM_080704.4) (hereinafter referred to also as hTRPV1) and human TRPM8 (Accession No. NM_024080.5) (hereinafter referred to also as hTRPM8) were inserted into pcDNA5/TO vectors (Invitrogen) to construct an hTRPA1 expression vector, an hTRPV1 expression vector and an hTRPM8 expression vector, respectively.
T-REx™_293 cells (Invitrogen) were cultured in Dulbecco's modified Eagle medium (DMEM, Nacalai Tesque Inc.) containing 10% fetal bovine serum (FBS, Cytiva) up to 60 to 70% confluent growth in the wells of a 6 well plate. T-REx™-293 cells were transfected with an hTRPA1 expression vector, an hTRPV1 expression vector or an hTRPM8 expression vector by use of Lipofectamine LTX (Invitrogen) in accordance with a manual.
To Dulbecco's modified Eagle medium (DMEM, Nacalai Tesque Inc.) containing 10% fetal bovine serum (FBS, Cytiva), hygromycin B and blasticidin S were added so as to have a concentration of […] and 5 μg/ml, respectively. In this manner, a drug selection medium was prepared. Twenty-four hours after completion of transfection, the medium of the above cells was exchanged with the drug selection medium, and thereafter, the cells were cultured for 7 days while exchanging the medium with a fresh medium every two days. Living cells were subcultured and regarded as hTRPA1 stably expressing cell line, hTRPV1 stably expressing cell line and hTRPM8 stably expressing cell line, respectively.
The day before assay, cells of the individual expressing cell lines were removed from the medium with a trypsin/EDTA solution and seeded in the wells of a 96-well black-well plate with a clear bottom so as to obtain a cell density of 5×10^4 cells to 6×10^4 cells/well. At this time, tetracycline was added to the medium so as to obtain a concentration of 1 μg/ml to induce expression of hTRPA1, hTRPV1 or hTRPM8. Culture was carried out in an incubator at 37° C. for 24 hours to 48 hours and then cells were washed with PBS. After PBS was removed from the wells, 50 μl of a calcium fluorescent indicator, Calbryte 520 AM (AAT, Bioquest), which was prepared by dissolving CaCl2 dihydrate, HEPES, BSA in an assay buffer HBSS (−) (solution prepared by adding so as to obtain a final concentration of 1 mM, 20 mM and 0.1%, respectively), so as to obtain a concentration of 4 μM, was added, to the wells and incubated at 33° C. for 45 minutes. Thereafter, the cells were again washed with the assay buffer and then 100 μl was allowed to remain in the wells to prepare cells for assay. A solution of a test substance for evaluating TRP channel agonist activity and having a concentration twice as large as the concentration for measurement was prepared within the wells of the 96-well plate and used within 30 minutes after preparation. The cells to be subjected to assay were incubated at 31° C. and a test substance solution (100 μl) was added to the cells for assay by use of Flaxstation3 (Molecular Devices) and fluorescence intensity (excitation wavelength: 490 nm, fluorescence wavelength: 525 nm) was measured every 2 seconds up to 120 seconds. Thirty seconds after initiation of measurement, the (test substance) solution was added to the cells for assay such that a final concentration of the test substance becomes a concentration for measurement.
TRP channel activation ability of a test substance was calculated as a relative value based on the activation ability of 10 μM ionomycin to each of TRP channels, in accordance with the following calculation formula. […]

The mark [3] stands for this setting: in the presence of 1 μM A-967079 (TRPA1 antagonist).

On to `CCCCC/C=C/C(=O)CCc1ccc(O)c(OC)c1` [Compound 6-shogaol, 6-shogaol], for which the “action to promote release of adrenomedullin from the intestinal epithelial cells, with a TRPA1 antagonist” value in series [1] (TRPA1 antagonist added) is recorded as “inhibited by a TRPA1 antagonist”. Besides, in series [1], the “release of adrenomedullin from the intestinal epithelial cells” value is given as “have an action to promote release of adrenomedullin from the intestinal epithelial cells”.

Regarding `CC/C=C/CC(O)/C=C/C=C\CCCCCCCC(=O)O` (stereo not shown) [Compound R1-2, (9Z,11E,15E)-13-hydroxy-9,11,15-octadecatrienoic acid], the Solubility result in series [2] is listed as “ethanol, methanol, acetonitrile, chloroform”. In addition, the figures for the TRPA1 activation ability result at human TRPA1 (in the absence of A-967079) and on human TRPA1 (setting [3]) were “showed TRPA1 activation ability in the absence of A-967079 in a concentration dependent manner” and “did not show TRPA1 activation ability”, respectively.

As for `CCC(O)/C=C/C=C\C/C=C\CCCCCCCC(=O)O` (stereo not shown) [Compound R2-2, (9Z,12Z,14E)-16-hydroxy-9,12,14-octadecatrienoic acid], in series [2], the Solubility entry is on record as “ethanol, methanol, acetonitrile, ethyl acetate, chloroform”. The TRPA1 activation ability entry on human TRPA1 (in the absence of A-967079) was “showed TRPA1 activation ability in the absence of A-967079 in a concentration dependent manner”; on human TRPA1 (setting [3]) it was “did not show TRPA1 activation ability”.

As for `CC/C=C\C/C=C\C=C\C(O)CCCCCCCC(=O)O` (stereo not shown) [Compound R3, (10E,12Z,15Z)-9-hydroxy-10,12,15-octadecatrienoic acid], the Solubility entry in series [2] is “ethanol, methanol, acetonitrile, ethyl acetate, chloroform”. Moreover, the TRPA1 activation ability result on human TRPA1 (in the absence of A-967079) is listed as “showed TRPA1 activation ability in the absence of A-967079 in a concentration dependent manner”; at human TRPA1 (setting [3]) it was “did not show TRPA1 activation ability”.

For “(7Z,13E,15Z)-12-hydroxy-7,13,15-octadecatrienoic acid and (9Z,13E,15Z)-12-hydroxy-9,13,15-octadecatrienoic acid [Compound R2-1]”, the TRPA1 activation ability result on human TRPA1 (in the absence of A-967079) is “showed TRPA1 activation ability in the absence of A-967079 in a concentration dependent manner”; at human TRPA1 (setting [3]), “did not show TRPA1 activation ability”.
